Measured values published in patent publication US20100144674A1, “PYRIDAZINE DERIVATIVES” (SYNGENTA CROP PROTECTION, INC., priority 2006, published 2010).

How the values were obtained:
Alternaria Solani = experiment: Alternaria solani / tomato / preventive; type: in vivo; conditions: 96 h, preventive spray, tomato plants cv. Roter Gnom, assessed 4 days after inoculation, read-out: inhibit fungal infestation
Method: (§1) Alternaria Solani/Tomato/Preventive (Action Against Alternaria on Tomato) 4 weeks old tomato plants cv. Roter Gnom are treated with the formulated test compound in a spray chamber. Two days after application tomato plants are inoculated by spraying a spore suspension on the test plants. After an incubation period of 4 days at 22° C./18° C. and 95% r. h. in a greenhouse the disease incidence is assessed.

Botrytis Cinerea = experiment: Botrytis cinerea / tomato / preventive; type: in vivo; conditions: 72 h, preventive spray, tomato plants cv. Roter Gnom, assessed 3 days after inoculation, read-out: inhibit fungal infestation
Method: as §1, with “Botrytis Cinerea/Tomato/Preventive (Action” for “Alternaria Solani/Tomato/Preventive (Action”, “Against Botrytis” for “Against Alternaria”, “of 3” for “of 4”, “at 20°” for “at 22° C./18°”

Puccinia Recondita = experiment: Puccinia recondita / wheat / preventive (brown rust); type: in vivo; conditions: 264 h, preventive spray, wheat plants cv. Arina, assessed 11 days after inoculation, read-out: inhibits fungal infestation
Method: Puccinia Recondita/Wheat/Preventive (Action Against Brown Rust on Wheat) 1 week old wheat plants cv. Arina are treated with the formulated test compound in a spray chamber. One day after application wheat plants are inoculated by spraying a spore suspension ([…] uredospores/ml) on the test plants. After an incubation period of 1 day at 20° C. and 95% r. h. plants are kept for 10 days 20° C./18° C. (day/night) and 60% r.h. in a greenhouse. The disease incidence is assessed 11 days after inoculation.

[1] = system: Magnaporthe Grisea (Pyricularia Oryzae); experiment: whole plant or invertebrate; type: in vivo; conditions: 144 h, read-out: inhibit fungal infestation
[2] = system: Pyrenophora Teres (Helminthosporium Teres); experiment: Pyrenophora teres (Helminthosporium teres) / barley / preventive (net blotch); type: in vivo; conditions: 96 h, preventive spray, barley plants cv. Regina, assessed 4 days after inoculation, read-out: inhibit fungal infestation
Method: Pyrenophora Teres (Helminthosporium Teres)/Barley/Preventive (Action Against Net Blotch on Barley) 1-week-old barley plants cv. Regina are treated with the formulated test compound in a spray chamber. Two days after application barley plants are inoculated by spraying a spore suspension (2.6×10^4 conidia/ml) on the test plants. After an incubation period of 4 days at 20° C. and 95% r. h. the disease incidence is assessed.

Septoria Tritici = experiment: Septoria tritici / wheat / preventive (Septoria leaf spot); type: in vivo; conditions: Zymoseptoria tritici, preventive spray, wheat plants cv. Riband, assessed 16-18 days after inoculation, read-out: inhibits fungal infestation
Method: Septoria Tritici/Wheat/Preventive (Action Against Septoria Leaf Spot on Wheat) 2 weeks old wheat plants cv. Riband are treated with the formulated test compound in a spray chamber. One day after application wheat plants are inoculated by spraying a spore suspension (10^6 conidia/ml) on the test plants. After an incubation period of 1 day at 22° C./21° C. and 95% r. h. plants are kept at 22° C./21° C. and 70% r.h. in a greenhouse. The disease incidence is assessed 16-18 days after inoculation.

Uncinula Necator = experiment: Uncinula necator / grape / preventive (powdery mildew); type: in vivo; conditions: Erysiphe necator, 168 h, preventive spray, grape seedlings cv. Gutedel, assessed 7 days after inoculation, read-out: inhibit fungal infestation
Method: Uncinula Necator/Grape/Preventive (Action Against Powdery Mildew on Grape) 5 weeks old grape seedlings cv. Gutedel are treated with the formulated test compound in a spray chamber. One day after application grape plants are inoculated by shaking plants infected with grape powdery mildew above the test plants. After an incubation period of 7 days at 24° C./22° C. and 70% r. h. under a light regime of 14/10 h (light/dark) the disease incidence is assessed.

SMILES	melting point [°C]	inhibition at 200 ppm (Alternaria Solani) [%]	inhibition at 200 ppm (Botrytis Cinerea) [%]	inhibition at 200 ppm (Puccinia Recondita) [%]	inhibition at 200 ppm [1] [%]	inhibition at 200 ppm [2] [%]	inhibition at 200 ppm (Septoria Tritici) [%]	inhibition at 200 ppm (Uncinula Necator) [%]
Cc1n[nH]c(=O)c(-c2c(F)cc(F)cc2F)c1-c1ccc2ccccc2c1 [I.ae.196, 6-methyl-5-naphthalen-2-yl-4-(2,4,6-trifluorophenyl)-2H-pyridazin-3-one]	266 to 268	–	–	–	–	–	–	–
Cc1nnc(Cl)c(-c2c(F)cc(F)cc2F)c1-c1ccc2ccccc2c1 [I.ae.198, 3-chloro-6-methyl-5-naphthalen-2-yl-4-(2,4,6-trifluorophenyl)-pyridazine]	86 to 89	≥ 80	≥ 80	≥ 80	≥ 80	≥ 80	≥ 80	≥ 80
Cc1nnc(F)c(-c2c(F)cc(F)cc2F)c1-c1ccc2ccccc2c1 [I.ae.197, 3-fluoro-6-methyl-5-naphthalen-2-yl-4-(2,4,6-trifluorophenyl)-pyridazine]	108 to 110	–	≥ 80	≥ 80	≥ 80	≥ 80	≥ 80	–
COc1nnc(C)c(-c2ccc3ccccc3c2)c1-c1c(F)cccc1Cl [I.ae.079, 4-(2-chloro-6-fluorophenyl)-3-methoxy-6-methyl-5-naphthalen-2-yl-pyridazine]	182 to 184	–	≥ 80	–	≥ 80	–	–	≥ 80
Cc1nnc(C)c(-c2c(F)cccc2Cl)c1-c1ccc2ccccc2c1 [I.ae.080, 4-(2-chloro-6-fluorophenyl)-3,6-dimethyl-5-naphthalen-2-yl-pyridazine]	120 to 123	≥ 80	–	–	≥ 80	–	≥ 80	–
COc1nnc(C)c(-c2ccc3ccccc3c2)c1-c1c(F)cc(F)cc1F [I.ae.199, 3-methoxy-6-methyl-5-naphthalen-2-yl-4-(2,4,6-trifluorophenyl)-pyridazine]	138 to 140	≥ 80	≥ 80	–	–	≥ 80	–	≥ 80
